Assay [1] deals with Plasmodium falciparum. In words: Ratio of IC50 for Plasmodium falciparum 3D7A after 6 days to IC50 for Plasmodium falciparum 3D7A after 3 days by HRP2 enzyme-linked immunosorbent assay. Format: functional.
In assay [2] the test system is Plasmodium falciparum. Description: Antimalarial activity against Plasmodium falciparum clinical isolate after 6 days by HRP2 enzyme-linked immunosorbent assay. Format: functional, organism-based. The following applies: 144 h.

As usually defined, the IC50 is the concentration that gives 50% inhibition. A high value points to a need for much substance.

In the case of `CCCCCC1CN[C@@H](C(=O)N[C@H]([C@H]2O[C@H](SC)[C@H](O)[C@@H](O)[C@H]2O)[C@@H](C)Cl)C1` (stereo partly drawn), the Ratio IC50 with Plasmodium falciparum [1] was more than 10000. The compound `CCC[C@@H]1C[C@@H](C(=O)N[C@@H]([C@H]2O[C@H](SC)[C@H](O)[C@@H](O)[C@H]2O)[C@H](C)Cl)N(C)C1` [CLINDAMYCIN] came in with a 50% inhibitory concentration (IC50) in the assay with Plasmodium falciparum [2] of 0.0116 µM. The same measure, in the same setting: as for `C[C@H]1c2cccc(O)c2C(=O)C2=C(O)[C@]3(O)C(=O)C(C(N)=O)=C(O)[C@@H](N(C)C)[C@@H]3[C@@H](O)[C@@H]21` [DOXYCYCLINE], the figure is 0.72 µM.

The values above are taken from ChEMBL document CHEMBL1212749, “In vitro activity of mirincamycin (U24729A) against Plasmodium falciparum isolates from Gabon” (Antimicrob Agents Chemother, 2010).
